Measured values taken from US10743540B2, “3-amino-1,2,4-triazine derivatives and their use for controlling undesired plant growth” (BAYER CROPSCIENCE AKTIENGESELLSCHAFT, priority 2016, dated 2020).

What was measured:
Type in all cases: in vivo
STEME: Stellaria media [1] = assay: Post-emergence herbicidal effect; settings: application rate 320 g/ha, treated at one-leaf stage, assessed visually after about 3 weeks, 100% = plants have died
Method: (§1) [table] 2. Post-Emergence Herbicidal Effect and Crop Plant Compatibility Seeds of monocotyledonous and dicotyledonous weed and crop plants are laid out in sandy loam soil in wood-fiber pots, covered with soil and cultivated in a greenhouse under good growth conditions. 2 to 3 weeks after sowing, the test plants are treated at the one-leaf stage. The compounds of the invention, formulated in the form of wettable powders (WP) or as emulsion concentrates (EC), are then sprayed onto the green parts of the plants as aqueous suspension or emulsion at a water application rate equating to 600 to 800 L/ha with addition of 0.2% wetting agent. After the test plants have been left to stand in the greenhouse under optimal growth conditions for about 3 weeks, the action of the preparations is assessed visually in comparison to untreated controls (herbicidal action in percent (%): 100% activity=the plants have died, 0% activity=like control plants).

VERPE: Veronica persica [2] = assay: Post-emergence herbicidal effect; settings: application rate 320 g/ha, treated at one-leaf stage, assessed visually after about 3 weeks, 100% = plants have died
Method: as §1

[3] = system: LOLMU: Lolium multiflorum; assay: Pre-emergence herbicidal effect; settings: application rate 320 g/ha, scored visually after 3 weeks, 100% = plants have died, 0% = like control plants
Description: (§2) 1. Pre-Emergence Herbicidal Effect and Crop Plant Compatibility Seeds of monocotyledonous and dicotyledonous weed plants and crop plants are laid out in sandy loam soil in wood-fiber pots and covered with soil. The compounds of the invention, formulated in the form of wettable powders (WP) or as emulsion concentrates (EC), are then applied to the surface of the covering soil as aqueous suspension or emulsion at a water application rate equating to 600 to 800 L/ha with addition of 0.2% wetting agent. After the treatment, the pots are placed in a greenhouse and kept under good growth conditions for the trial plants. The damage to the test plants is scored visually after a test period of 3 weeks by comparison with untreated controls (herbicidal activity in percent (%): 100% activity=the plants have died, 0% activity=like control plants). [table]

[4] = system: ECHCG: Echinochloa crus-galli; assay: Pre-emergence herbicidal effect; settings: application rate 320 g/ha, scored visually after 3 weeks, 100% = plants have died, 0% = like control plants
Description: as §2

[5] = system: MATIN: Matricaria inodora; assay: Pre-emergence herbicidal effect; settings: application rate 320 g/ha, scored visually after 3 weeks, 100% = plants have died, 0% = like control plants
Description: as §2

[6] = system: POLCO: Polygonum convolvulus; assay: Pre-emergence herbicidal effect; settings: application rate 320 g/ha, scored visually after 3 weeks, 100% = plants have died, 0% = like control plants
Description: as §2

SETVI: Setaria viridis = assay: Pre-emergence herbicidal effect; settings: application rate 320 g/ha, scored visually after 3 weeks, 100% = plants have died, 0% = like control plants
Description: as §2

STEME: Stellaria media [7] = assay: Pre-emergence herbicidal effect; settings: application rate 320 g/ha, scored visually after 3 weeks, 100% = plants have died, 0% = like control plants
Description: as §2

[8] = system: ALOMY: Alopecurus myosuroides; assay: Pre-emergence herbicidal effect; settings: application rate 320 g/ha, scored visually after 3 weeks, 100% = plants have died, 0% = like control plants
Description: as §2

VERPE: Veronica persica [9] = assay: Pre-emergence herbicidal effect; settings: application rate 320 g/ha, scored visually after 3 weeks, 100% = plants have died, 0% = like control plants
Description: as §2

[10] = system: AMARE: Amaranthus retroflexus; assay: Post-emergence herbicidal effect; settings: application rate 320 g/ha, treated at one-leaf stage, assessed visually after about 3 weeks, 100% = plants have died
Method: as §1

VIOTR: Viola tricolor = assay: Post-emergence herbicidal effect; settings: application rate 320 g/ha, treated at one-leaf stage, assessed visually after about 3 weeks, 100% = plants have died
Method: as §1

[11] = system: ABUTH: Abutilon theophrasti; assay: Pre-emergence herbicidal effect; settings: application rate 320 g/ha, scored visually after 3 weeks, 100% = plants have died, 0% = like control plants
Description: as §2

Row | SMILES | Herbicidal activity with respect to [%] STEME (STEME: Stellaria media [1]) [%] | Herbicidal activity with respect to [%] VERPE (VERPE: Veronica persica [2]) [%] | Herbicidal activity with respect to [%] LOLMU [3] [%] | Herbicidal activity with respect to [%] ECHCG [4] [%] | Herbicidal activity with respect to [%] MATIN [5] [%] | Herbicidal activity with respect to [%] POLCO [6] [%] | Herbicidal activity with respect to [%] SETVI (SETVI: Setaria viridis) [%] | Herbicidal activity with respect to [%] STEME (STEME: Stellaria media [7]) [%] | Herbicidal activity with respect to [%] ALOMY [8] [%] | Herbicidal activity with respect to [%] VERPE (VERPE: Veronica persica [9]) [%] | Herbicidal activity with respect to [%] AMARE [10] [%] | Herbicidal activity with respect to [%] VIOTR (VIOTR: Viola tricolor) [%] | Herbicidal activity with respect to [%] ABUTH [11] [%]
1 | Nc1nc(NC2CCCc3cc(F)ccc32)nnc1C(F)(F)F (racemic) [Example 1.46] | 100 | 80 | 90 | 100 | 100 | 100 | 100 | 100 | 90 | 100 | – | – | –
2 | N#Cc1nnc(NC2CCOc3ccccc32)nc1N (racemic) [Example 1.60] | 90 | 100 | – | – | – | – | – | 100 | – | 100 | 80 | – | –
3 | N#Cc1nnc(NC2CCOc3ccc(F)cc32)nc1N (racemic) [Example 1.64] | 90 | 100 | – | 100 | 90 | 100 | 100 | 100 | – | 100 | 100 | 80 | –
4 | Nc1nc(N[C@@H]2CCCc3ccccc32)nnc1Cl [Example 1.4] | 90 | 90 | 100 | 100 | 100 | 100 | 100 | 100 | 100 | 100 | 90 | 80 | –
5 | Cc1ccc2c(c1)[C@H](Nc1nnc(C(F)(F)F)c(N)n1)CC2 [Example 1.31] | 90 | – | 100 | 100 | 100 | 100 | 100 | 100 | 100 | 100 | – | – | –
6 | CCOC(=O)c1nnc(N[C@@H]2CCCc3ccccc32)nc1N [Example 1.32, Ethyl 5-amino-3-[(1R)-1,2,3,4-tetrahydronaphthalen-1-ylamino]-1,2,4-triazine-6-carboxylate] | 80 | 80 | – | 100 | 100 | – | 90 | 100 | – | 100 | 80 | – | –
7 | N#Cc1nnc(N[C@@H]2CCCc3ccccc32)nc1N [Example 1.37] | 100 | 100 | 100 | 100 | 100 | 100 | 100 | 100 | 100 | 100 | – | – | –
8 | Cc1ccc2c(c1)[C@H](Nc1nnc(C(=O)NC(C)C)c(N)n1)[C@@H](C)C2 [Example 1.39] | 80 | 100 | – | 90 | 100 | 80 | 100 | 100 | 80 | 100 | – | 90 | –
9 | Cc1ccc2c(c1)[C@H](Nc1nnc(C(=O)N(C)C)c(N)n1)[C@@H](C)C2 [Example 1.40] | – | 100 | 100 | 100 | 100 | 100 | 100 | 100 | 100 | 100 | – | 80 | 90
10 | CNC(=O)c1nnc(N[C@H]2c3cc(C)ccc3C[C@@H]2C)nc1N [Example 1.41] | – | 100 | 100 | 100 | 100 | 100 | 100 | 100 | 100 | 100 | 80 | 80 | –
11 | Nc1nc(N[C@@H]2CCc3ccccc32)nnc1Cl [Example 1.59] | 100 | 80 | 90 | 80 | – | 80 | 80 | 100 | – | 100 | – | – | –
12 | C[S+]([O-])c1nnc(N[C@@H]2CCCc3ccccc32)nc1N (some centres unmarked) [Example 1.65] | 100 | 80 | 100 | 100 | 100 | 100 | 100 | 100 | – | 100 | – | 80 | 90
13 | CCOC(=O)c1nnc(N[C@@H]2CCc3ccc(C)cc32)nc1N [Example 1.74] | 100 | – | – | 100 | 100 | 100 | 100 | – | 80 | – | – | – | –
14 | Cc1ccc2c(c1)[C@H](Nc1nnc(C(=O)N(C)C)c(N)n1)CC2 [Example 1.77] | 100 | – | – | 100 | 100 | 100 | 100 | – | 100 | – | – | 90 | 90
15 | Nc1nc(NC2c3ccccc3CC2O)nnc1C(F)(F)F (centres unmarked) [Example 1.82] | – | – | – | – | 100 | 100 | 100 | – | – | – | – | – | –
16 | Cc1ccc2c(c1)[C@H](Nc1nnc(C(C)O)c(N)n1)[C@@H](C)C2 (some centres unmarked) [Example 1.103] | 80 | 90 | – | 100 | 100 | 100 | – | 100 | – | 100 | – | 90 | –
